# Experimental data from PubChem BioAssay AID2060504 (Molecular Pharmacology Branch, DTP, NCI, 2025).
# System: 636577-100-R-J1-PDC complex spheroid viability
# Experiment: Anticancer human tumor 636577-100-R-J1-PDC patient-derived endometrial adenocarcinoma cell line growth inhibition [GQUAD]
# Conditions: for IC50: curve of first compound; for viability, T/C: stronger effect = lower value
# Excerpt: DNA G-quadruplex Stabilizer Agents in Combinations in Complex Spheroids
# A high-throughput screen of multi-cell type tumor spheroids was designed to identify active combinations of DNA G-quadruplex stabilizer agents and targeted small molecules. Complex spheroids include a stromal component modeled by human endothelial cells (HUVEC) and fibroblasts modeled by human mesenchymal stem cells (MSCs). The concentration ranges selected for each drug and investigational agent were based upon clinically achievable concentrations if the clinical Cmax of the agent was known.
# Compounds. The drugs and investigational agents: pidnarulex (CX-5461; NSC782164), APTO-253 (NSC789042), BRACO-19 (NSC847499), peposertib (NSC802822), ceralasertib (NSC780249), elimusertib (NSC800525), camonsertib (NSC841442), AZD-1390 (NSC803789), olaparib (NSC753686), talazoparib (NSC767125), ART-558 (NSC835418), sotorasib (NSC818433), MRTX-1133 (NSC836407), SN-38 (NSC673596), topotecan (NSC609699), etoposide (NSC141540), doxorubicin (NSC123127), gemcitabine (NSC613327), 5-fluorouracil (NSC19893), paclitaxel (NSC125973), vemurafenib (NSC761431), panobinostat (NSC761190), R-306465 (JNJ-16241199; NSC773264), adavosertib (NSC754352), TP-3654 (NSC805149), carboplatin (NSC241240), KSQ-4279 (NSC840948), and staurosporine (NSC755774) were obtained from the National Cancer Institute (NCI) Developmental Therapeutics Program Chemical Repository (34). The FDA-approved anticancer drug set is available from the NCI Developmental Therapeutics Program. […] The stock solutions were prepared in dimethyl sulfoxide (DMSO, Sigma-Aldrich, St. Louis, MO, cat. D2650) at 800-fold the tested concentration and stored at -70 degrees C prior to their use. All drugs and investigational agents were tested over a range starting from a high concentration at or near the clinical Cmax and decreasing in half-log increments. If the clinical Cmax for an agent had not been determined, the highest concentration tested was 10 microM.
# 2.3 Cell Culture. All cells were maintained in an incubator at 37 degrees C and 5% CO2 with 95% humidity. The PDC lines were cultured according to standard operating procedures established by the NCI PDMR. All PDCs were thawed and cultured in Matrigel-coated flasks prepared with a working solution of 1X Ham's F-12 nutrient mix, without supplementation (Invitrogen, cat. 11765054), 100 U/mL penicillin-streptomycin (Invitrogen, cat. 15140122), and 2.5% Matrigel (Corning Inc., cat. 354248) for the first three passages. The 857933-349-R-J2-PDC line was cultured in 6C/Colon 1B media, which includes advanced DMEM/F-12 (Thermo Fisher Scientific, cat. 12634028), 10 mM HEPES (Thermo Fisher Scientific, cat. 15630080), 1X GlutaMAX supplement (Thermo Fisher Scientific, cat. 35050061), 0.1 mg/mL primocin (InvivoGen, cat. ant-pm-2), 10% defined fetal bovine serum, heat inactivated (HyClone Laboratories Inc., cat. SH30070.03HI), 50% L-WRN conditioned media (ATCC, cat. CRL-3276), 1.25 mM N-Acetyl-L-cysteine (Sigma-Aldrich, cat. A9165), 10 mM nicotinamide (Sigma-Aldrich, cat. N0636), 1X B-27 supplement (Thermo Fisher Scientific, cat. 17504044), 1X N-2 supplement (Thermo Fisher Scientific, cat. 17502048), 10 microM Y-27632 dihydrochloride (Tocris Bioscience, cat. 1254), and 50 ng/mL human EGF recombinant protein (Thermo Fisher Scientific, cat. PHG0311). The 485176-168-R4-J1-PDC line was cultured in Panc media, which includes all 6C/Colon 1B media components plus 100 ng/mL human FGF-10 (Thermo Fisher Scientific, cat. 100-26), 500 nM SB-431542 (Selleckchem, cat. S1067), and gastrin (Tocris, cat. 3006).
# […]
# [1] = second compound 0.0316 µM, first compound 0.0316 µM
# [2] = second compound 0.0316 µM, first compound 0.1 µM
# [3] = second compound 0.0316 µM, first compound 0.316 µM
# [4] = second compound 0.0316 µM, first compound 1 µM
# [5] = second compound 0.0316 µM, first compound 3.16 µM
# [6] = second compound 0.0316 µM, first compound 10 µM
# [7] = second compound 0.1 µM, first compound 0.0316 µM
# [8] = second compound 0.1 µM, first compound 0.1 µM
# [9] = second compound 0.1 µM, first compound 0.316 µM
# [10] = second compound 0.1 µM, first compound 1 µM
# [11] = second compound 0.1 µM, first compound 3.16 µM
# [12] = second compound 0.1 µM, first compound 10 µM
# [13] = second compound 0.316 µM, first compound 0.0316 µM
# [14] = second compound 0.316 µM, first compound 0.1 µM
# [15] = second compound 0.316 µM, first compound 0.316 µM
# [16] = second compound 0.316 µM, first compound 1 µM
# [17] = second compound 0.316 µM, first compound 3.16 µM
# [18] = second compound 0.316 µM, first compound 10 µM
# [19] = second compound 1 µM, first compound 0.0316 µM
# [20] = second compound 1 µM, first compound 0.1 µM
# [21] = second compound 1 µM, first compound 0.316 µM
# [22] = second compound 1 µM, first compound 1 µM
# [23] = second compound 1 µM, first compound 3.16 µM
# [24] = second compound 1 µM, first compound 10 µM
# [25] = second compound 3.16 µM, first compound 0.0316 µM
# [26] = second compound 3.16 µM, first compound 0.1 µM
# [27] = second compound 3.16 µM, first compound 0.316 µM
# [28] = second compound 3.16 µM, first compound 1 µM
# [29] = second compound 3.16 µM, first compound 3.16 µM
# [30] = second compound 3.16 µM, first compound 10 µM
# [31] = second compound 10 µM, first compound 0.0316 µM
# [32] = second compound 10 µM, first compound 0.1 µM
# [33] = second compound 10 µM, first compound 0.316 µM
# [34] = second compound 10 µM, first compound 1 µM
# [35] = second compound 10 µM, first compound 3.16 µM
# [36] = second compound 10 µM, first compound 10 µM
# 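Note: viability read after seven days of drug exposure.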
# 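Throughout, for viability, T/C: luminescence signal used as a proxy for viable cells; 100% = DMSO vehicle control wells.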
compound,measurement,setting,value
COc1cccc2c1C(=O)c1c(O)c3c(c(O)c1C2=O)CC(O)(C(=O)CO)CC3OC1CC(N)C(O)C(C)O1 (centres undefined) + CN(C)c1ccc(Nc2c3ccc(NC(=O)CCN4CCCC4)cc3nc3cc(NC(=O)CCN4CCCC4)ccc23)cc1,IC50,second compound 0.0316 µM,< 31.6 nM
same,IC50,second compound 0.1 µM,< 31.6 nM
same,IC50,second compound 0.316 µM,< 31.6 nM
same,IC50,second compound 1 µM,< 31.6 nM
same,IC50,second compound 3.16 µM,< 31.6 nM
same,IC50,second compound 10 µM,< 31.6 nM
same,"viability, T/C",[1],28%
same,"viability, T/C",[2],17.2%
same,"viability, T/C",[3],15.3%
same,"viability, T/C",[4],7.48%
same,"viability, T/C",[5],0.17%
same,"viability, T/C",[6],0.58%
same,"viability, T/C",[7],27.2%
same,"viability, T/C",[8],15.9%
same,"viability, T/C",[9],15.3%
same,"viability, T/C",[10],7.46%
same,"viability, T/C",[11],0.12%
same,"viability, T/C",[12],0.61%
same,"viability, T/C",[13],28%
same,"viability, T/C",[14],18.6%
same,"viability, T/C",[15],12.9%
same,"viability, T/C",[16],7.67%
same,"viability, T/C",[17],0.2%
same,"viability, T/C",[18],0.5%
same,"viability, T/C",[19],25%
same,"viability, T/C",[20],18.6%
same,"viability, T/C",[21],13.3%
same,"viability, T/C",[22],7.58%
same,"viability, T/C",[23],0.13%
same,"viability, T/C",[24],0.47%
same,"viability, T/C",[25],19.4%
same,"viability, T/C",[26],17.2%
same,"viability, T/C",[27],10.8%
same,"viability, T/C",[28],3.65%
same,"viability, T/C",[29],0.16%
same,"viability, T/C",[30],0.34%
same,"viability, T/C",[31],4.99%
same,"viability, T/C",[32],3.27%
same,"viability, T/C",[33],1.84%
same,"viability, T/C",[34],0.34%
same,"viability, T/C",[35],0.19%
same,"viability, T/C",[36],0.27%
O=C(NO)c1cnc(N2CCN(S(=O)(=O)c3ccc4ccccc4c3)CC2)nc1 + Cc1cnc(CNC(=O)c2c(=O)c3ccc(N4CCCN(C)CC4)nc3n3c2sc2ccccc23)cn1,IC50,second compound 0.0316 µM,< 31.6 nM
same,IC50,second compound 0.1 µM,< 31.6 nM
same,IC50,second compound 0.316 µM,< 31.6 nM
same,IC50,second compound 1 µM,< 31.6 nM
same,IC50,second compound 3.16 µM,< 31.6 nM
same,IC50,second compound 10 µM,< 31.6 nM
same,"viability, T/C",[1],29.4%
same,"viability, T/C",[2],20.2%
same,"viability, T/C",[3],6.22%
same,"viability, T/C",[4],5.24%
same,"viability, T/C",[5],0.21%
same,"viability, T/C",[6],0.09%
same,"viability, T/C",[7],24.2%
same,"viability, T/C",[8],17.7%
same,"viability, T/C",[9],6.24%
same,"viability, T/C",[10],5.27%
same,"viability, T/C",[11],0.47%
same,"viability, T/C",[12],0.08%
same,"viability, T/C",[13],20%
same,"viability, T/C",[14],15.8%
same,"viability, T/C",[15],6.06%
same,"viability, T/C",[16],4.96%
same,"viability, T/C",[17],0.17%
same,"viability, T/C",[18],0.07%
same,"viability, T/C",[19],21.5%
same,"viability, T/C",[20],16.8%
same,"viability, T/C",[21],6.11%
same,"viability, T/C",[22],6.97%
same,"viability, T/C",[23],0.05%
same,"viability, T/C",[24],0.07%
same,"viability, T/C",[25],16.3%
same,"viability, T/C",[26],17.7%
same,"viability, T/C",[27],9.78%
same,"viability, T/C",[28],3.81%
same,"viability, T/C",[29],0.06%
same,"viability, T/C",[30],0.08%
same,"viability, T/C",[31],21.6%
same,"viability, T/C",[32],16.5%
same,"viability, T/C",[33],10.8%
same,"viability, T/C",[34],0.08%
same,"viability, T/C",[35],0.09%
same,"viability, T/C",[36],0.11%
